Reference: ChEMBL document CHEMBL1136582, “Identification of a high-affinity phosphopeptide inhibitor of Stat3” (Bioorg Med Chem Lett, 2003)
Square brackets hold non-standard residues; d marks the D form. Peptide text beside a SMILES is read from it. * marks the point of attachment. ξ: configuration not given here. Phe(4-tetrazol-5-yl) = N[C@@H](Cc1ccc(-c2nnn[nH]2)cc1)C(=O)O; Phe(4-COOH) = N[C@@H](Cc1ccc(C(=O)O)cc1)C(=O)O; pY = N[C@@H](Cc1ccc(OP(=O)(O)O)cc1)C(=O)O; X1 = NC(=O)[C@H](CO)NC[C@H](CC(=O)O)N*; ξA = CC(N)C(=O)O

Target: Signal transducer and activator of transcription 3 (Homo sapiens, UniProt P40763)
Assay: Inhibition of Stat3 (Signal transduction and activator of transcription 3) dimerization measured by EMSAs (Electrophoretic mobility shift assay)

Sequence of Signal transducer and activator of transcription 3 (P40763 whole entry): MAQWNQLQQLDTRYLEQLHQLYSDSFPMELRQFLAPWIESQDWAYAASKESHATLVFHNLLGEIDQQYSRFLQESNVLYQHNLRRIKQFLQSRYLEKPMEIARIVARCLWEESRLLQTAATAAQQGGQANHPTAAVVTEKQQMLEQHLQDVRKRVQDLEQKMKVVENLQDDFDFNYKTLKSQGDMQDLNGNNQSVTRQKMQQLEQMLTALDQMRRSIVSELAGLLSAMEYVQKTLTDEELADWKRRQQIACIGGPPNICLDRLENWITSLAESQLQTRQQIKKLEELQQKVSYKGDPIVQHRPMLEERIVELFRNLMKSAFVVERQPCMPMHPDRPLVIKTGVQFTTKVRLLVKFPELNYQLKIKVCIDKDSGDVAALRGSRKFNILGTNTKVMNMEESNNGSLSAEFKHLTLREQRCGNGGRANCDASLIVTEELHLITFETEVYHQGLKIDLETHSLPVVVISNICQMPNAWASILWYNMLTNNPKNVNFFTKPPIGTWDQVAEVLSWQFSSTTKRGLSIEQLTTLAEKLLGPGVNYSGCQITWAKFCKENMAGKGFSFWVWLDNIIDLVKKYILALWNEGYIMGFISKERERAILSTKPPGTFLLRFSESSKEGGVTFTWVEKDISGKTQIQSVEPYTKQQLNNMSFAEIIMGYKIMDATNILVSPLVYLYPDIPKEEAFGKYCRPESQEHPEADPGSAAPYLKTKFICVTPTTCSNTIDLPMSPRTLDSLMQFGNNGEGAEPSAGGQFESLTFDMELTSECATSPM

Row | IC50 | SMILES
1 | 0.8 µM | CC(=O)N[C@@H](Cc1ccc(OP(=O)(O)O)cc1)C(=O)N[C@@H](CC(C)C)C(=O)N1CCC[C@H]1C(=O)N[C@@H](CCC(N)=O)C(=O)N[C@@H](C)C(=O)N[C@H](C(N)=O)C(C)C (Ac-[pY]LPQAV-NH2)
2 | 6 µM | CC(=O)N[C@@H](Cc1ccc(OP(=O)(O)O)cc1)C(=O)N[C@@H](CCCN=C(N)N)C(=O)N[C@@H](Cc1cnc[nH]1)C(=O)N[C@@H](CCC(N)=O)C(=O)N[C@H](C(=O)N1CCC[C@H]1C(N)=O)C(C)C (Ac-[pY]RHQVP-NH2)
3 | > 150 µM | CC(=O)N[C@@H](Cc1ccc(OP(=O)(O)O)cc1)C(=O)N[C@@H](CO)C(=O)N[C@H](C(=O)N[C@H](C(=O)N[C@H](C(=O)N[C@@H](Cc1c[nH]cn1)C(N)=O)C(C)C)C(C)C)[C@@H](C)O (Ac-[pY]STVVH-NH2)
4 | 1.5 µM | CSCC[C@H](NC(=O)[C@H](Cc1ccc(OP(=O)(O)O)cc1)NC(C)=O)C(=O)N1CCC[C@H]1C(=O)N[C@@H](CCC(N)=O)C(N)=O (Ac-[pY]MPQ-NH2)
5 | > 6 µM | CC(=O)N[C@@H](Cc1ccc(OP(=O)(O)O)cc1)C(=O)N[C@@H](CC(C)C)C(=O)N1CCC[C@H]1C(N)=O (Ac-[pY]-Leu-Pro-NH2)
6 | 4 µM | CC(=O)N[C@@H](Cc1ccc(OP(=O)(O)O)cc1)C(=O)N[C@@H](CC(C)C)C(=O)NC(C)C(=O)N[C@@H](CCC(N)=O)C(=O)N[C@H](C(=O)N[C@H](C(N)=O)C(C)C)[C@@H](C)O (some centres not stated) (Ac-[pY]L[ξA]QTV-NH2)
7 | 8 µM | CC(=O)N[C@@H](Cc1ccc(OP(=O)(O)O)cc1)C(=O)N[C@@H](CCC(N)=O)C(=O)N[C@@H](CCCCN)C(=O)N[C@@H](CCC(N)=O)C(=O)N[C@H](C(=O)N[C@@H](CCCN=C(N)N)C(N)=O)[C@@H](C)O (Ac-[pY]QKQTR-NH2)
8 | 80 µM | CC(=O)N[C@@H](Cc1ccc(OP(=O)(O)O)cc1)C(=O)N[C@@H](CC(C)C)C(=O)N[C@@H](CCCN=C(N)N)C(=O)N[C@@H](CS)C(=O)N[C@H](CN[C@@H](CO)C(N)=O)CC(=O)O (Ac-[pY]LRC-X1)
9 | > 6 µM | CC(=O)N[C@@H](Cc1ccc(OP(=O)(O)O)cc1)C(=O)N[C@@H](CC(C)C)C(=O)N1CCC[C@H]1C(=O)N[C@@H](CCC(=O)O)C(=O)N[C@H](C(=O)N[C@H](C(N)=O)C(C)C)[C@@H](C)O (Ac-[pY]LPETV-NH2)
10 | > 150 µM | CC(=O)N[C@@H](Cc1ccc(OP(=O)(O)O)cc1)C(=O)N[C@@H](CO)C(=O)N[C@@H](CC(=O)O)C(=O)NCC(=O)N[C@@H](CC(N)=O)C(=O)N[C@@H](Cc1ccccc1)C(N)=O (Ac-[pY]SDGNF-NH2)
11 | > 6 µM | CC(=O)N[C@@H](Cc1ccc(OP(=O)(O)O)cc1)C(=O)N[C@@H](CC(C)C)C(=O)N1CCC[C@H]1C(=O)N[C@@H](C)C(=O)N[C@H](C(=O)N[C@H](C(N)=O)C(C)C)[C@@H](C)O (Ac-[pY]LPATV-NH2)
12 | 8 µM | CC(=O)N[C@@H](Cc1ccc(OP(=O)(O)O)cc1)C(=O)N[C@H](C(=O)N[C@@H](CC(C)C)C(=O)N[C@@H](CCC(N)=O)C(=O)NCC(=O)N[C@@H](CC(=O)O)C(N)=O)C(C)C (Ac-[pY]VLQGD-NH2)
13 | 60 µM | CC(=O)N[C@@H](Cc1ccc(OP(=O)(O)O)cc1)C(=O)N[C@@H](Cc1ccccc1)C(=O)N[C@@H](CCCCN)C(=O)N[C@@H](CCC(N)=O)C(=O)N[C@@H](CC(N)=O)C(=O)N[C@@H](CS)C(N)=O (Ac-[pY]FKQNC-NH2)
14 | 1.6 µM | CC(=O)N[C@@H](Cc1ccc(OP(=O)(O)O)cc1)C(=O)N[C@@H](C)C(=O)N1CCC[C@H]1C(=O)N[C@@H](CCC(N)=O)C(=O)N[C@H](C(=O)N[C@H](C(N)=O)C(C)C)[C@@H](C)O (Ac-[pY]APQTV-NH2)
15 | 6 µM | CC(=O)N[C@@H](Cc1ccc(OP(=O)(O)O)cc1)C(=O)N[C@@H](CCC(N)=O)C(=O)N1CCC[C@H]1C(=O)N[C@@H](CCC(N)=O)C(=O)N[C@@H](C)C(=O)N[C@@H](CCCCN)C(N)=O (Ac-[pY]QPQAK-NH2)
16 | 6 µM | CC(=O)N[C@@H](Cc1ccc(OP(=O)(O)O)cc1)C(=O)N[C@@H](CC(C)C)C(=O)N[C@@H](CCCCN)C(=O)N[C@@H](CCC(N)=O)C(=O)N[C@@H](CCC(=O)O)C(=O)N[C@@H](CO)C(N)=O (Ac-[pY]LKQES-NH2)
17 | 2 µM | CC(=O)N[C@@H](Cc1ccc(OP(=O)(O)O)cc1)C(=O)N[C@@H](CC(C)C)C(=O)N1CCC[C@H]1C(=O)N[C@@H](CC(N)=O)C(=O)N[C@H](C(=O)N[C@H](C(N)=O)C(C)C)[C@@H](C)O (Ac-[pY]LPNTV-NH2)

Row | SMILES | IC50
18 | CC(=O)N[C@@H](Cc1ccc(C(=O)O)cc1)C(=O)N[C@@H](CC(C)C)C(=O)N1CCC[C@H]1C(=O)N[C@@H](CCC(N)=O)C(=O)N[C@H](C(=O)N[C@H](C(N)=O)C(C)C)[C@@H](C)O (Ac-[Phe(4-COOH)]LPQTV-NH2) | > 6 µM
19 | CC(=O)N[C@@H](Cc1ccc(-c2nn[nH]n2)cc1)C(=O)N[C@@H](CC(C)C)C(=O)N1CCC[C@H]1C(=O)N[C@@H](CCC(N)=O)C(=O)N[C@H](C(=O)N[C@H](C(N)=O)C(C)C)[C@@H](C)O (Ac-[Phe(4-tetrazol-5-yl)]LPQTV-NH2) | > 6 µM
20 | CC(=O)N[C@@H](Cc1ccc(OP(=O)(O)O)cc1)C(=O)N[C@@H](CC(C)C)C(=O)N1CCC[C@H]1C(=O)N[C@@H](CCC(N)=O)C(=O)N[C@H](C(=O)N[C@@H](C)C(=O)O)[C@@H](C)O (Ac-[pY]LPQTA-OH) | 0.4 µM
21 | CSCC[C@H](NC(=O)[C@H](CCC(N)=O)NC(=O)[C@@H]1CCCN1C(=O)[C@H](CCCCN)NC(=O)[C@H](Cc1ccc(OP(=O)(O)O)cc1)NC(C)=O)C(=O)N[C@@H](Cc1cnc[nH]1)C(N)=O (Ac-[pY]KPQMH-NH2) | 0.4 µM
22 | CSCC[C@H](NC(=O)[C@H](C)NC(=O)[C@H](CCC(N)=O)NC(=O)[C@@H]1CCCN1C(=O)[C@H](CCCN=C(N)N)NC(=O)[C@H](Cc1ccc(OP(=O)(O)O)cc1)NC(C)=O)C(N)=O (Ac-[pY]RPQAM-NH2) | 1 µM
